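Interpolation was linear, between the two tested concentrations surrounding the appropriate level; five concentrations were tested over 48 hours in 96-well plates. TGI: total growth inhibition.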
Legend:
Test in all cases: NCI-60 cell line screen, 48 h
MDA-N = test system: MDA-N
K-562 leukemia = test system: K-562 leukemia
SN12C renal = test system: SN12C renal
HS 578T breast = test system: HS 578T breast
HT29 colon = test system: HT29 colon
BT-549 breast = test system: BT-549 breast
SF-295 CNS = test system: SF-295 CNS
SNB-75 CNS = test system: SNB-75 CNS
EKVX NSCLC = test system: EKVX NSCLC
RPMI-8226 leukemia = test system: RPMI-8226 leukemia
A498 renal = test system: A498 renal
786-0 renal = test system: 786-0 renal
M14 melanoma = test system: M14 melanoma
SK-OV-3 ovarian = test system: SK-OV-3 ovarian
TK-10 renal = test system: TK-10 renal
NCI/ADR-RES ovarian = test system: NCI/ADR-RES ovarian
RXF 393 renal = test system: RXF 393 renal
OVCAR-3 ovarian = test system: OVCAR-3 ovarian
SF-268 CNS = test system: SF-268 CNS
MDA-MB-435 = test system: MDA-MB-435
COLO 205 colon = test system: COLO 205 colon
SK-MEL-2 melanoma = test system: SK-MEL-2 melanoma
T-47D breast = test system: T-47D breast
HL-60(TB) leukemia = test system: HL-60(TB) leukemia
UACC-62 melanoma = test system: UACC-62 melanoma
UACC-257 melanoma = test system: UACC-257 melanoma
HCT-15 colon = test system: HCT-15 colon
OVCAR-8 ovarian = test system: OVCAR-8 ovarian
SNB-19 CNS = test system: SNB-19 CNS
HOP-92 NSCLC = test system: HOP-92 NSCLC
IGROV1 ovarian = test system: IGROV1 ovarian
SK-MEL-28 melanoma = test system: SK-MEL-28 melanoma
NCI-H460 lung = test system: NCI-H460 lung
UO-31 renal = test system: UO-31 renal
U251 CNS = test system: U251 CNS
NCI-H226 lung = test system: NCI-H226 lung
PC-3 prostate = test system: PC-3 prostate
NCI-H23 lung = test system: NCI-H23 lung
SR leukemia = test system: SR leukemia
OVCAR-5 ovarian = test system: OVCAR-5 ovarian
CCRF-CEM leukemia = test system: CCRF-CEM leukemia
HCC-2998 colon = test system: HCC-2998 colon
NCI-H522 lung = test system: NCI-H522 lung
CAKI-1 renal = test system: CAKI-1 renal
ACHN renal = test system: ACHN renal
KM12 colon = test system: KM12 colon
DU-145 prostate = test system: DU-145 prostate
SF-539 CNS = test system: SF-539 CNS
LOX IMVI melanoma = test system: LOX IMVI melanoma
A549 NSCLC = test system: A549 NSCLC
SK-MEL-5 melanoma = test system: SK-MEL-5 melanoma
MOLT-4 leukemia = test system: MOLT-4 leukemia
OVCAR-4 ovarian = test system: OVCAR-4 ovarian
HOP-62 NSCLC = test system: HOP-62 NSCLC
MCF7 breast = test system: MCF7 breast
HCT-116 colon = test system: HCT-116 colon
SW-620 colon = test system: SW-620 colon
MDA-MB-231 breast = test system: MDA-MB-231 breast

## CC(=O)N(C)C(C(=O)N1CC(C)CC1C(=O)N(C)C1C(=O)NC(CC(C)C)C(=O)N2CC(C)CC2C(=O)NC(CC(C)C)C(=O)N(C)C(C(C)C)C(=O)N2CCCC2C(=O)N(C)C(CC(C)C)C(=O)NCC(=O)OC1C)C(C)C (stereo unspecified)
MDA-N
  TGI: > 100 µM
K-562 leukemia
  TGI: > 100 µM
SN12C renal
  TGI: > 100 µM
HS 578T breast
  TGI: > 100 µM
HT29 colon
  TGI: > 100 µM
BT-549 breast
  TGI: > 100 µM
SF-295 CNS
  TGI: > 100 µM
SNB-75 CNS
  TGI: > 100 µM
EKVX NSCLC
  TGI: > 100 µM
RPMI-8226 leukemia
  TGI: > 100 µM
A498 renal
  TGI: > 100 µM
786-0 renal
  TGI: > 100 µM
M14 melanoma
  TGI: > 100 µM
SK-OV-3 ovarian
  TGI: > 100 µM
TK-10 renal
  TGI: > 100 µM
NCI/ADR-RES ovarian
  TGI: > 100 µM
RXF 393 renal
  TGI: > 100 µM
OVCAR-3 ovarian
  TGI: > 100 µM
SF-268 CNS
  TGI: > 100 µM
MDA-MB-435
  TGI: > 100 µM
COLO 205 colon
  TGI: > 100 µM
SK-MEL-2 melanoma
  TGI: > 100 µM
T-47D breast
  TGI: > 100 µM
HL-60(TB) leukemia
  TGI: > 100 µM
UACC-62 melanoma
  TGI: > 100 µM
UACC-257 melanoma
  TGI: > 100 µM
HCT-15 colon
  TGI: > 100 µM
OVCAR-8 ovarian
  TGI: > 100 µM
SNB-19 CNS
  TGI: > 100 µM
HOP-92 NSCLC
  TGI: > 100 µM
IGROV1 ovarian
  TGI: > 100 µM
SK-MEL-28 melanoma
  TGI: > 100 µM
NCI-H460 lung
  TGI: > 100 µM
UO-31 renal
  TGI: > 100 µM
U251 CNS
  TGI: > 100 µM
NCI-H226 lung
  TGI: > 100 µM
PC-3 prostate
  TGI: > 100 µM
NCI-H23 lung
  TGI: > 100 µM
SR leukemia
  TGI: > 100 µM
OVCAR-5 ovarian
  TGI: > 100 µM
CCRF-CEM leukemia
  TGI: > 100 µM
HCC-2998 colon
  TGI: > 100 µM
NCI-H522 lung
  TGI: > 100 µM
CAKI-1 renal
  TGI: > 100 µM
ACHN renal
  TGI: > 100 µM
KM12 colon
  TGI: > 100 µM
DU-145 prostate
  TGI: > 100 µM
SF-539 CNS
  TGI: > 100 µM
LOX IMVI melanoma
  TGI: > 100 µM
A549 NSCLC
  TGI: > 100 µM
SK-MEL-5 melanoma
  TGI: > 100 µM
MOLT-4 leukemia
  TGI: > 100 µM
OVCAR-4 ovarian
  TGI: > 100 µM
HOP-62 NSCLC
  TGI: > 100 µM
MCF7 breast
  TGI: > 100 µM
HCT-116 colon
  TGI: > 100 µM
SW-620 colon
  TGI: > 100 µM
MDA-MB-231 breast
  TGI: > 100 µM

## CCOC(=O)c1c(Sc2ccc([N+](=O)[O-])cc2[N+](=O)[O-])nc2c3ccccc3ccn12
MDA-N
  TGI: > 100 µM
K-562 leukemia
  TGI: > 100 µM
SN12C renal
  TGI: > 100 µM
HS 578T breast
  TGI: > 92.3 µM
HT29 colon
  TGI: > 100 µM
BT-549 breast
  TGI: > 100 µM
SF-295 CNS
  TGI: > 100 µM
SNB-75 CNS
  TGI: > 100 µM
EKVX NSCLC
  TGI: > 100 µM
RPMI-8226 leukemia
  TGI: > 100 µM
A498 renal
  TGI: > 100 µM
786-0 renal
  TGI: > 38.6 µM
M14 melanoma
  TGI: > 100 µM
SK-OV-3 ovarian
  TGI: 69.7 µM
TK-10 renal
  TGI: > 100 µM
NCI/ADR-RES ovarian
  TGI: > 100 µM
RXF 393 renal
  TGI: > 92.9 µM
OVCAR-3 ovarian
  TGI: > 100 µM
SF-268 CNS
  TGI: > 100 µM
MDA-MB-435
  TGI: > 100 µM
COLO 205 colon
  TGI: > 100 µM
SK-MEL-2 melanoma
  TGI: > 100 µM
T-47D breast
  TGI: > 100 µM
HL-60(TB) leukemia
  TGI: > 100 µM
UACC-62 melanoma
  TGI: > 65.9 µM
UACC-257 melanoma
  TGI: > 100 µM
HCT-15 colon
  TGI: > 100 µM
OVCAR-8 ovarian
  TGI: > 100 µM
SNB-19 CNS
  TGI: > 100 µM
HOP-92 NSCLC
  TGI: 41.3 µM
IGROV1 ovarian
  TGI: > 31.6 µM
SK-MEL-28 melanoma
  TGI: > 100 µM
NCI-H460 lung
  TGI: > 100 µM
UO-31 renal
  TGI: > 100 µM
U251 CNS
  TGI: > 100 µM
NCI-H226 lung
  TGI: > 100 µM
PC-3 prostate
  TGI: > 100 µM
NCI-H23 lung
  TGI: > 100 µM
SR leukemia
  TGI: > 100 µM
OVCAR-5 ovarian
  TGI: > 100 µM
CCRF-CEM leukemia
  TGI: > 100 µM
HCC-2998 colon
  TGI: > 100 µM
NCI-H522 lung
  TGI: > 100 µM
CAKI-1 renal
  TGI: > 100 µM
ACHN renal
  TGI: > 100 µM
KM12 colon
  TGI: > 100 µM
DU-145 prostate
  TGI: > 100 µM
SF-539 CNS
  TGI: > 94.8 µM
LOX IMVI melanoma
  TGI: > 100 µM
A549 NSCLC
  TGI: > 100 µM
SK-MEL-5 melanoma
  TGI: > 100 µM
MOLT-4 leukemia
  TGI: > 100 µM
OVCAR-4 ovarian
  TGI: > 100 µM
HOP-62 NSCLC
  TGI: > 59.4 µM
MCF7 breast
  TGI: > 100 µM
HCT-116 colon
  TGI: > 100 µM
SW-620 colon
  TGI: > 100 µM
MDA-MB-231 breast
  TGI: > 100 µM
